From patent US20230233566A1, “INHIBITION OF BMI1 ELIMINATES CANCER STEM CELLS AND ACTIVATES ANTITUMOR IMMUNITY” (The Regents of the University of California, priority 2020, published 2023)

Assays:
[1] = target: BMI-1 (Homo sapiens, UniProt P35226); conditions: cell-free assay; cited from earlier work
[2] = phase 1 study; cited from earlier work
[3] = system: HNSCC tumor cells; experiment: Anti-active caspase-3 (Ac-casp3) immunostaining of apoptosis in HNSCC; format: in vivo, mouse; conditions: given concurrently with PTC209 plus anti-PD1
Experimental: (§1) The immunocomplexes were detected and visualized using related secondary antibodies conjugated with Cy2 or Cy3 (Jackson ImmunoResearch Laboratories). […] At least three sections from each HNSCC lesions were immunostained and analyzed. Tumor cells (>150) and CD8+, Ac-casp3+ and Tomato^+ cells of these tumor cell areas were counted manually in each section. The percentage of CD8+, Ac-casp3^+ and Tomato^+ cells were calculated by dividing those cells with tumor cells and averaged from the sections.

[4] = system: BMI1+ CSCs; experiment: BMI1 immunostaining of CSCs in HNSCC; format: in vivo, mouse; conditions: FIG. 16C-16D
[5] = system: HNSCC; experiment: 4NQO mouse model of HNSCC: lesion area, histology, invasion grade
Experimental: Bmi1^CreER (JAX:010531) and R26^tdTomato (JAX:007908) mouse strains were cross-mated to generate Bmi1^CreER;R26^tdTomato. K14^CreER (JAX:005107) and Bmi1^flox/flox (JAX: 028974) mouse strains were cross-mated to generate K14^CreER; Bmi1^flox/flox. […] For induction of HNSCC, six-week-old mice were treated with drinking water containing 50 ug/ml 4NQO (Santa Cruz, Cat #256815) for 16 weeks and then given normal drinking water for tumor formation and lymph node metastasis. For lineage tracing and Bmi1 knock out studies, mice were intraperitoneally injected with tamoxifen (9 mg per 40 g body weight; Sigma-Aldrich, Cat #T5648) to activate Cre.
Cisplatin (Sigma-Aldrich, Cat #479306) was dissolved in saline. PTC209 (MedChem Express, Cat #HY-15888) was dissolved in 14% DMSO, 36% polyethylene glycol 400 (Sigma-Aldrich, Cat #202304) and 50% polypropylene glycol (Sigma-Aldrich Cat #4347). […]
Briefly, mice were sacrificed, and tongues and cervical lymph nodes were harvested immediately and the lesion surface areas were measured. […] The SCC number was counted and areas were measured as described before (Chen et al., 2017). The HNSCC invasiveness was scored based on the following criteria: showing signs of normal or epithelial dysplasia appearance (grade 1); distinct invasion, unclearness of basement membrane, drop and diffuse infiltration into the superficial portion of the muscle layer (grade 2); loss of the basement membrane, extensive invasion into deep muscle layer (grade 3). To assess lymph node metastasis, the sections of cervical lymph nodes were immunostained with anti-PCK antibodies which specifically detected epithelial tumor cells in lymph nodes (Santa Cruz, Cat #sc-8018). The percentage of lymph nodes with metastasis and their metastatic areas were measured.

[6] = system: CD8+ T cells; experiment: Immunostaining of CD8+ T cells in HNSCC; format: in vivo, mouse
Experimental: as §1

[7] = system: HNSCC lymph node metastasis; experiment: Cervical lymph node metastasis by anti-PCK immunostaining; format: in vivo, mouse; conditions: given concurrently with PTC209 plus anti-PD1
Experimental: Tumor growth and cervical lymph node metastasis were examined as described before (Chen et al., 2017). Briefly, mice were sacrificed, and tongues and cervical lymph nodes were harvested immediately and the lesion surface areas were measured. For histological analysis and immunostaining, longitudinally cut tongues (dorsal/ventral) and intact lymph nodes were fixed overnight in 10% buffered formalin and paraffin-embedded. Tissue blocks were cut into 10-15 sections in 4 μm thickness and stained with hematoxylin and eosin (H&E). The SCC number was counted and areas were measured as described before (Chen et al., 2017). […] To assess lymph node metastasis, the sections of cervical lymph nodes were immunostained with anti-PCK antibodies which specifically detected epithelial tumor cells in lymph nodes (Santa Cruz, Cat #sc-8018). The percentage of lymph nodes with metastasis and their metastatic areas were measured.

[8] = system: BMI1+ CSCs; experiment: In vivo labeling and lineage tracing of Tomato+ BMI1+ CSCs; design: species or system mouse; conditions: tamoxifen 1 day prior to sacrifice, treated 4 weeks
Experimental: as §1

[9] = system: BMI1; experiment: BMI1 expression in HNSCC tumors by immunostaining and Western blot; format: in vivo, mouse; conditions: HNSCC, FIG. 18
Experimental: (§2) Cells were lysed using the radioimmunoprecipitation assay (RIPA) buffer (Sigma-Aldrich, Cat #R0278) added with a cocktail of protease inhibitors (Thermo Fisher Scientific, Cat ##78430) and phosphatase inhibitors (Sigma-Aldrich, Cat #4906845001). Protein extracts were resolved on a 10% or 15% SDS polyacrylamide gel and then transferred to a polyvinylidene difluoride membrane. Membranes were blocked with 5% milk for 1 h and incubated with primary antibodies overnight at 4° C. […] The signals were detected using the Clarity Western ECL kit (Bio-Rad, Cat #1705060). […] After treatment, supernatants were collected, and the protein levels of CCL5, CXCL9, CXCL10 and CXCL11 were measured with ELISA (R&D Systems, Cat #DRN00B, DCX900, DIP100, DCX110) according to the manufacturer's instructions.

[10] = system: IFNβ; experiment: qRT-PCR of IFNβ mRNA; format: cell-based, human; conditions: SCC23 cells
Experimental: (§3) For qRT-PCR, total RNA was prepared using TRIzol reagent (Thermo Fisher Scientific Cat #15596026), and 1 μg of RNA was reversely transcribed with random primer (Thermo Fisher Scientific Cat #48190011), dNTP mix (Thermo Fisher Scientific, Cat #18427013), and M-MuLV Reverse Transcriptase (New England Biolabs, Cat #M0253L). The levels of mRNA were […] measured using a SYBRGreen supermix (Bio-Rad, Cat #1708880). GAPDH was used as an internal control.

[11] = system: BMI1; experiment: Western blot of BMI1 and H2AUb in SCC23 and SCC1 cells; format: cell-based, human
Experimental: Human SCC23 and SCC1 cells were grown in DMEM containing 10% FBS and antibiotics (streptomycin and penicillin) at 37° C. in a 5% CO2 atmosphere. To generate lentiviruses, scramble control (shCtrl, Addgene, Cat #1864; see Sarbassov et al Science 2005 Feb. 18; 307(5712):1098-101) and BMI1 specific shRNA lentiviral plasmids (shBmi1, Sigma-Aldrich, Cat #TRCN0000020156, comprising […], SEQ ID NO:35) were transfected into HEK293T cells with two helper plasmids psPAX2 (Addgene, Cat #12260) and pMD2.G (Addgene, Cat #12259). Viral supernatant was harvested 72 h after transfection and passed through a 0.45 μm filter to remove cell debris and live cells. Collected lentiviruses were used directly to infect cells with the addition of polybrene (Sigma-Aldrich, Cat #H9268), or frozen at −80° C. for later use. […]
as §2, with “#4906845001).” for “#4906845001). Protein extracts were resolved on a 10% or 15% SDS polyacrylamide gel and then transferred to a polyvinylidene difluoride membrane. Membranes were blocked with 5% milk for 1 h and incubated with primary antibodies overnight at 4° C.”

[12] = system: pH2A.X; experiment: DNA damage in SCC23 and SCC1 cells (pH2A.X, alkaline comet assay); format: cell-based, human
Experimental: (§4) Cells were lysed using the radioimmunoprecipitation assay (RIPA) buffer (Sigma-Aldrich, Cat #R0278) added with a cocktail of protease inhibitors (Thermo Fisher Scientific, Cat ##78430) and phosphatase inhibitors (Sigma-Aldrich, Cat #4906845001). Protein extracts were resolved on a 10% or 15% SDS polyacrylamide gel and then transferred to a polyvinylidene difluoride membrane. Membranes were blocked with 5% milk for 1 h and incubated with primary antibodies overnight at 4° C. Primary antibodies used in this study were: anti-phospho-STING (Ser366) (1:1,000; Cell Signaling Technology, Cat #19781), anti-STING (1:1,000; Cell Signaling Technology, Cat #13647), anti-phospho-TBK1 (Ser172) (1:1,000; Cell Signaling Technology, Cat #5483), anti-TBK1 (1:1,000; Cell Signaling Technology, Cat #3504), anti-phospho-IRF3 (Ser396) (1:1,000; Cell Signaling Technology, Cat #29047), anti-IRF3 (1:1,000; Cell Signaling Technology, Cat #4302), anti-BMI1 (1:1,000; Cell Signaling Technology, Cat #6964), anti-Ubiquityl-Histone H2A (Lys119) (1:1000, Cell Signaling Technology, Cat #8240), anti-phospho Histone H2A.X (Ser139) (1:1000; Cell Signaling Technology, Cat #9718), and anti-GAPDH (1:1000; Cell Signaling Technology, Cat #5174), anti-Histone H3 (1:2,000; Cell Signaling Technology, Cat #4499). The signals were detected using the Clarity Western ECL kit (Bio-Rad, Cat #1705060). To measure the protein levels of CCL5, CXCL9, CXCL10 and CXCL11, cells were treated with PTC209 or shBMI1 knockdown for 48 hr. After treatment, supernatants were collected, and the protein levels of CCL5, CXCL9, CXCL10 and CXCL11 were measured with ELISA (R&D Systems, Cat #DRN00B, DCX900, DIP100, DCX110) according to the manufacturer's instructions.
Single cell gel electrophoresis comet assays were performed using the SCGE assay Kit (Enzo Life Sciences, Cat #ADI-900-166). Following the treatment, cells were mixed with low melting point agarose at a volume ratio of 1:50, and 100 μl of aliquots were loaded onto pre-warmed slides. Slides were incubated in pre-chilled lysis solution for 1 h and then in pre-chilled alkaline solution for 1 h. Electrophoresis was run at 22 V in the TBE buffer for 30 min. Comets were stained with CYGREEN dye for 30 min and imaged. 50 individual cells at least per sample were evaluated in duplicates by the CASP Version 1.2.2 analysis tool.

[13] = system: cytosolic dsDNA; experiment: Cytosolic dsDNA staining (PicoGreen/MitoTracker); format: cell-based, human; conditions: SCC23 and SCC1 cells
Experimental: Following the treatment, SCC23 and SCC1 cells were incubated with culture media containing PicoGreen (dsDNA stain, 200-fold dilution, Thermo Fisher Scientific, Cat #P11496) and MitoTracker ([…], 100 nM, Thermo Fisher Scientific, Cat #M7512). One hour after incubation, cells were fixed with 4% paraformaldehyde for 10 min. Cells were then washed twice with PBS and stained with DAPI (Sigma-Aldrich, Cat #D9542) and mounted with SlowFade Antifade Reagents (Thermo Fisher Scientific, Cat #536937). Staining was imaged and assessed using a Leica SP5X laser scanning confocal microscope.

[14] = system: promoters of CCL5, CXCL9, CXCL10 and CXCL11; experiment: ChIP-qPCR on chemokine promoters; format: cell-based, human; conditions: SCC23 cells
Experimental: ChIP-qPCR assays were performed as previously described (Ding et al, 2013). Briefly, SCC cells were sequentially treated with dimethyl 3,3′-dithiobispropionimidate-HCl (DTBP; Cat #20665, Thermo Fisher Scientific) solution and formaldehyde, and harvested with a cell scraper. The cell pellet was lysed with ChIP lysis buffer and sonicated to generate 200-500 bp DNA fragments with a sonicator. The fragmented chromatins were immunoprecipitated with anti-BMI1 (Cell Signaling Technology, Cat #6964), anti-Ubiquityl-Histone H2A (Lys119) (Cell Signaling Technology, Cat #8240) overnight at 4° C. The precipitated DNA-chromatin products were purified with ChIP DNA clean & concentrator kit (Cat #D5205, Zymo Research) and the DNA levels were quantified by qPCR. Data is presented as the percentage of input DNA.

[15] = system: SCC23 cells; experiment: qRT-PCR of ATM, DNA-PKcs, MRE11, JUN, FOSL1, MMP3, MMP9 in SCC23 cells; format: cell-based, human
Experimental: as §3

[16] = system: cGAS-STING-IRF3 signaling; experiment: Western blot of phosphorylated STING, TBK1, IRF3; format: cell-based, human
Experimental: as §4

[17] = given concurrently with PTC209 plus anti-PD1

Chain of BMI-1 (P35226 whole entry, species assumed): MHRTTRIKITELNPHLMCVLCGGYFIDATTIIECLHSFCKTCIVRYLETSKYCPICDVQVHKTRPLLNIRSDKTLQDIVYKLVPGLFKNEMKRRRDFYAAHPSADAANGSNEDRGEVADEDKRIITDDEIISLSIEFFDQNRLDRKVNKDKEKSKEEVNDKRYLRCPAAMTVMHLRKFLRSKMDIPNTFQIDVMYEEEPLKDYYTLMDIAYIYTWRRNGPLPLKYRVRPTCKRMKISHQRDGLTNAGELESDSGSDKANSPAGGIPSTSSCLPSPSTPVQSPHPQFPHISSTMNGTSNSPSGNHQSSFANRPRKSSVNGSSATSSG
Chain of BMI-1 (Q06587 whole entry partner, species assumed): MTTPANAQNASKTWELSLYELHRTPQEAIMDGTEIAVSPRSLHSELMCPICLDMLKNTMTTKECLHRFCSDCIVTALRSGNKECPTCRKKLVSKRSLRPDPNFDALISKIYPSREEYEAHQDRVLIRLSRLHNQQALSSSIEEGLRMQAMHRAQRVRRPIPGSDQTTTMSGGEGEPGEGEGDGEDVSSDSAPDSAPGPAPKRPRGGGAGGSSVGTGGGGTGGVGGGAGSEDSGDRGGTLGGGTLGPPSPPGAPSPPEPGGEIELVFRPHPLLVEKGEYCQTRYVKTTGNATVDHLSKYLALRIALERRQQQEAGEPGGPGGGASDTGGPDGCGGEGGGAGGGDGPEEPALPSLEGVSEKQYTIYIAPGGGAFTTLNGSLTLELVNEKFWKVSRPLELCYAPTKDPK

Compound: O=C1C(=Cc2cccnc2)C(=O)c2ccccc21 [PRT4165, 2-(3-pyridinylmethylene)-1H-indene-1,3(2H)-dione]
- IC50 [1]: 3.9 µM

Compound: Cc1nc2ccc(F)cc2n1-c1nc(N)c(F)c(Nc2ccc(C(F)(F)F)cc2)n1 [PTC596, 5-fluoro-2-(6-fluoro-2-methyl-1H-benzimidazol-1-yl)-N-[4-(trifluoromethyl)phenyl]pyrimidine-4,6-diamine]
- tolerability [2]: tolerable with manageable gastrointestinal side effects

Compound: Cc1ccc(-c2ccc3c(c2)C=C(C(=O)Nc2ccc(C[N+](C)(C)C4CCOCC4)cc2)CCC3)cc1.[Cl-] [TAK779]
- apoptosis in HNSCC [3]: attenuated apoptosis in HNSCC
- BMI1+ CSCs in HNSCC (strong BMI1 staining) [4]: does not affect CSCs in HNSCC
- HNSCC growth (histological analysis) [5, 17]: significantly reversed the inhibition of HNSCC growth
- visible lesion areas [5, 17]: significantly restored visible lesion areas
- CD8+ T cells infiltration in HNSCC [6, 17]: significantly abrogated CD8+ T cells infiltration in HNSCC
- lymph node metastasis of HNSCC [7]: significantly lessened the inhibition of lymph node metastasis

Compound: N.N.[Cl][Pt][Cl] [cisplatin]
- lesion surface areas ([5]; 4NQO-induced HNSCC, Bmi1CreER;RosatdTomato mice, treated 4 weeks): reduced the lesion surface areas
- BMI1+ CSCs in HNSCC (in vivo labeling) [8]: significantly enriched BMI1^+ CSCs
- Bmi1 expression in Tomato+ CSCs (MFI of BMI1 staining) [9]: induces Bmi1 expression in Tomato^+ CSCs
- CD8+ T cell infiltration in HNSCC ([6]; 4NQO-induced HNSCC, treated 4 weeks): did not significantly increase CD8+ T cell infiltration

Compound: shBMI1: BMI1 specific shRNA lentiviral plasmids (Sigma-Aldrich, Cat #TRCN0000020156), SEQ ID NO:35 (CCGGCCTAATACTTTCCAGATTGATCTCGAGATCAATCTGGAAAGTATTAGGTTTTT)
- IFNβ mRNA expression [10]: induction of IFNβ mRNA expression in SCC23 cells
- BMI1 and H2AUb levels [11]: reduced the expression of BMI1
- Olive tail moment ([12]; alkaline comet assay): significantly increased the Olive tail moment in SCC23 and SCC1 cells
- pH2A.X ([12]; immunostaining and Western blot): increased pH2A.X in SCC23 and SCC1 cells
- accumulation of cytosolic dsDNA [13]: induced the accumulation of cytosolic dsDNA
- levels of BMI1 on the promoters of CCL5, CXCL9, CXCL10 and CXCL11 [14]: reduction of BMI1 occupied on the promoters of CCL5, CXCL9, CXCL10, and CXCL11 in SCC23 cells
- levels of H2AUb marks on the promoters of CCL5, CXCL9, CXCL10 and CXCL11 [14]: reduction of H2AUb levels on the promoters of CCL5, CXCL9, CXCL10, and CXCL11 in SCC23 cells
- ATM, DNA-PKcs, and MRE11 mRNA expression [15]: does not affect the expression of ATM, DNA-PKcs, and MRE11
- JUN, FOSL1, MMP3, and MMP9 mRNA expression [15]: does not change the expression of JUN, FOSL1, MMP3, and MMP9 significantly
- phosphorylation of STING (S366), TBK1 (S172) and IRF3 (S396) ([16]; SCC1 cells): induction of phosphorylation of STING (S366), TBK1 (S172) and IRF3 (S396) in SCC1 cells
- phosphorylation of STING (S366), TBK1 (S172) and IRF3 (S396) ([16]; SCC23 cells): induction of phosphorylation of STING (S366), TBK1 (S172) and IRF3 (S396) in SCC23 cells
